# Assays:
# [1] = system: latent HIV-1 in rCD4+ cells co-cultured with CD8+ cells; assay: HIV-1 reactivation in ex vivo co-cultures of rCD4+ and CD8+ cells from an ART-treated HIV patient (HIV RNA in supernatant); format: cell-based, human
# Description: The efficacy of IAPa, ICI or IAPa/ICI combinations in reversing HIV-1 latency was tested in HIV-1 infected rCD4+ cells co-cultured for 48 h with CD8+ cells from the same donor.
# Method: Blood from one HIV-1-infected patient under ART was collected (500 mL) and CD4+ and CD8+ cells isolated using beads coated with specific antibodies following manufacturer's instruction (MojoSort™ Human Cell Isolation Kits from Biolegend). The CD4+ T cells were re-infected with HIV-1 (JR-CSF) (1 μg of p24), incubated for 3 days to allow establishment of infection, and treated with ART ([…]) for 7 days to ensure presence of enough latent HIV CD4+ cells (rCD4+) in the culture. Upon ART removal, rCD4 were then isolated following manufacturer's instruction (EasySep™ Human Resting CD4+ T Cell Isolation Kit). The isolated rCD4 were mixed with autologous (from the same patient) uninfected CD8+ T cells at a 1:1 ratio (100,000 cells) and incubated in duplicate for 48 h with different IAPa ([…]) or ICI (10 μg/ml) in monotherapy, or the IAPa/ICI combinations. Amounts of virions released from cells were quantified at the indicated time points by quantifying HIV RNA levels (HIV RNA copies/mL) in supernatant of cell culture using one-step reverse transcriptase quantitative real-time PCR (ABI custom TaqMan Assays-by-Design) according to the manufacturer's instructions. Primers were 5-[…]-3 and 5-[…]-3, and MGB probe 5-FAM-[…]-Q-3, where FAM is 6-carboxyfluorescein.
# [2] = system: latent HIV in resting CD4+ T-lymphocytes; assay: HIV reactivation in resting CD4+ T-lymphocytes derived from ART-treated HIV patients (HIV RNA in supernatant, qPCR); format: cell-based, human
# Description: The experiments of this example analyzed the ability of DEB10-1143 at reactivating latent HIV in resting CD4+ T-lymphocytes isolated from peripheral blood monocytic cells (PBMCs) derived from HIV patients currently under ART. Drug titration and kinetic studies were conducted. Debio-1143 was tested alone or in combination with ART.
# Method: Resting CD4+ T cells were isolated using the EasySep™ Human Resting CD4+ T Cell Isolation Kit, which is designed to isolate resting CD4+ T cells from fresh or previously frozen PBMCs by immunomagnetic negative selection. The EasySep™ procedure involves labeling unwanted cells with antibody complexes and magnetic particles. The magnetically labeled cells are separated from the untouched desired cells by using an EasySep™ magnet and simply pouring or pipetting the desired cells into a new tube. Isolated resting CD4+ T cells (50,000 cells/50 μL) were treated in duplicate for 0, 24, 48 and 72 h with increasing concentrations of DEB10-1143 (0 to 20.5 μM) used alone or in combination with ART (20 μM TDF, 10 μM FTC and 1 μM Raltegravir). Amounts of virions released from cells were quantified at the indicated time points by quantifying HIV RNA levels (HIV RNA copies/mL) in supernatant of cell culture using one-step reverse transcriptase quantitative real-time PCR (ABI custom TaqMan Assays-by-Design) according to the manufacturer's instructions. Primers were 5-[…]-3 and 5-[…]-3, and MGB probe 5-FAM-[…]-Q-3, where FAM is 6-carboxyfluorescein.
# [3] = system: latent HIV in JLat 10.6-GFP, 2D10 and 5A8 cells; assay: HIV reactivation using latent reporter cell lines (GFP expression by flow cytometry); format: cell-based, human
# From the text: The experiment analyzed the ability of DEB10-1143 at reactivating latent HIV using three well-characterized latent T cell lines—JLat 10.6-GFP, 2D10 and 5A8 (Jordan A, Bisgrove D, Verdin E (2003) EMBO J 22(8): 1868-1877. doi: 10.1093/emboj/cdg188. PMID: 12682019; Sakane N, Kwon HS, Pagans S, Kaehlcke K, Mizusawa Y, Kamada M, et al. (2011) PLoS Pathog 7(8): e1002184. PMID: 21876670; Pearson R, Kim Y K, Hokello J, Lassen K, Friedman J, Tyagi M, et al. (2008) J Virol 82(24): 12291-12303. PMID: 18829756). These cell lines contain part of the HIV genome and the GFP reporter gene and are unable to produce infective HIV particles. Drug titration and kinetic studies were conducted. Debio-1143 was tested alone or in combination with the current antiretroviral therapy (ART), consisting of 20 μM tenofovir disoproxil fumarate [TDF], 10 μM emtricitabine [FTC] and 1 μM raltegravir [RAL]. ART and DEB10-1143 were added simultaneously to cells.
# Method: Cells (100,000 cells/100 μL) were treated in triplicate for 0 and 72 h with increasing concentrations of DEB10-1143 (0 to 20.5 μM) used alone or in combination with ART (see above). ART and DEB10-1143 were added simultaneously to cells. Cells were analyzed for GFP expression by flow cytometry at the indicated time points counting all cells per replicate, and reported as % GFP+cells.
# BIRC2 = target: T1, BIRC2 (Homo sapiens, UniProt Q13490); assay: BIRC2 (cIAP1) degradation by Western blotting; format: cell-based
# T1 construct: endogenous in cells; host or cells: 2D10, 293T and CD4+ T cells
# T1 sequence (Q13490 whole entry): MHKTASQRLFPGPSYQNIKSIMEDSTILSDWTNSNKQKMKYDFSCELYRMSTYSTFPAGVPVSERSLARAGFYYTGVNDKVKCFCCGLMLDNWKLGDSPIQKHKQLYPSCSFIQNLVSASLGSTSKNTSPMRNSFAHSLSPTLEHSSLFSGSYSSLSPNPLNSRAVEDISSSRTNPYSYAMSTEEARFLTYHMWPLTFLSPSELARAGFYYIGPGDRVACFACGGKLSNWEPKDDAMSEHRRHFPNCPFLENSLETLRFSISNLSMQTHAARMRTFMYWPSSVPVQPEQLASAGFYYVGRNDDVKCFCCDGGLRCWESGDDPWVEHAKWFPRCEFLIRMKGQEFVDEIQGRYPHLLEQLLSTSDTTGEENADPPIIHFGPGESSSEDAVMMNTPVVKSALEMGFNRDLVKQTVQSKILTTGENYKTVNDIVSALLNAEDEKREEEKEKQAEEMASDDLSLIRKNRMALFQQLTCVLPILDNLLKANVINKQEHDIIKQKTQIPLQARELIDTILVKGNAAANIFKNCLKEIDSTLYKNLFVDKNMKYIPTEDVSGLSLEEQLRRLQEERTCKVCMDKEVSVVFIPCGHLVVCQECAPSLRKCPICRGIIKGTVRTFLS
# Description: It was investigated whether Debio-1143 reverses HIV-1 latency by acting on the NF-κB pathway. Canonical and non-canonical NF-κB signaling pathways play an important role in the reactivation of latent HIV-1, implicating its regulation as an important therapeutic strategy for latency reversal.
# Method: 2D10 (A) or 293T (B) and CD4+ T cells (C) cells were treated with DMSO, Debio-1143 (1 μM) and TNFα (10 ng/ml) for the indicated times and analyzed by Western blotting for BIRC2 and IkBα protein expression using antibodies specifically detecting human BIRC2, human IkBα, or human CypA, such as commercially available (e.g. from R&D Systems, Cell Signaling, Santa Cruz Biotechnology, or other sources).
structure (smiles),measurement,setting,value
"CN[C@@H](C)C(=O)N[C@H]1CN(C(=O)CC(C)C)CC[C@H]2CC[C@@H](C(=O)NC(c3ccccc3)c3ccccc3)N2C1=O [Debio 1143, (5S,8S,10aR)-N-benzhydryl-5-((S)-2-(methylamino)propanamido)-3-(3-methylbutanoyl)-6-oxodecahydropyrrolo[1,2-a][1,5]diazocine-8-carboxamide]",latency reversal class (HIV RNA copies/ml in supernatant),"[1]; IAPa 1 μM monotherapy (0.1% DMSO, no ICI), 48 h (Table 3)",3 (Subsequent classes were defined accordingly in steps of 500 RNA copies/ml)
same,latency reversal class (HIV RNA copies/ml in supernatant),"[1]; IAPa 1 μM with Control IgG1, 48 h (Table 3)",3 (Subsequent classes were defined accordingly in steps of 500 RNA copies/ml)
same,latency reversal class (HIV RNA copies/ml in supernatant),"[1]; IAPa 1 μM with Control IgG2, 48 h (Table 3)",3 (Subsequent classes were defined accordingly in steps of 500 RNA copies/ml)
same,influence of ART on the degree of latency reversal,"[2]; in combination with ART (20 μM TDF, 10 μM FTC, 1 μM Raltegravir)",did not influence
same,time after which reactivation was already maximal,[2]; resting CD4+ T cells from two HIV patients under ART,≤ 24 h
same,reactivation of latent HIV (HIV RNA copies/mL in supernatant),"[2]; resting CD4+ T cells from two HIV patients under ART, 0 to 20.5 μM, 0-72 h",possesses the capacity of reactivating latent HIV
same,"degree of HIV reactivation, comparison of cell lines",[3]; 2D10 cells compared to the two other cell lines,shows the best degree of HIV reactivation
same,influence of ART on the degree of latency reversal,"[3]; in combination with ART (20 μM TDF, 10 μM FTC, 1 μM RAL), added simultaneously",does not influence
same,HIV reactivation (% GFP+ cells),"[3]; single agent, 0 to 20.5 μM, 72 h, JLat 10.6-GFP, 2D10 and 5A8 cells",possesses the capacity of activating latent HIV
same,time of BIRC2 degradation,"BIRC2; 1 μM, 2D10 and 293T cells",< 15 min
same,BIRC2 degradation,BIRC2; CD4+ T cells,dose-dependent
